{"source": "patent US11286259B2", "about": "“Co-crystals of ribociclib and co-crystals of ribociclib monosuccinate, preparation method therefor, compositions thereof, and uses thereof” (Hangzhou SoliPharma Co., Ltd., priority 2017, dated 2022)", "key": {"[1]": {"assay": "stability test in water, stirred at 25° C. for 24 hours, crystal form detection by XRPD", "assay_type": "physicochemical", "conditions": "for Crystal Form: 100 mg in 5 mL deionized water, stirred at 25° C. for 24 hours, XRPD"}, "[2]": {"conditions": "high humidity, mentioned in CN105085533A, cited from earlier work"}, "[3]": {"assay": "crystal form stability at high humidity", "assay_type": "physicochemical"}, "[4]": {"assay": "water solubility test (apparent water solubility, HPLC detection)", "conditions": "10 mg in 10 mL deionized water, sonicated at 25° C. for 1 minute"}, "[5]": {"conditions": "desiccator, 4 months, room temperature, relative humidity of 10% to 90%"}, "[6]": {"assay": "crystal stability test, samples placed at 80° C. for 24 hours, crystal form detection by XRPD", "assay_type": "physicochemical", "conditions": "after being placed for 24 hours at 80° C."}, "[7]": {"assay": "physchem", "conditions": "deionized water, 25 °C, thermodynamic from solid"}, "[8]": {"assay": "hygroscopicity, isothermal adsorption curve (weight gain versus relative humidity)", "assay_type": "physicochemical"}, "[9]": {"conditions": "listed as co-crystal form of ribociclib monosuccinate and citric acid"}}, "note": "Read-outs that look alike come from different tables or passages of the source.", "data": [{"smiles": "CN(C)C(=O)c1cc2cnc(Nc3ccc(N4CCNCC4)cn3)nc2n1C1CCCC1.O=C(O)CCC(=O)O", "note": "[listing 1 of 2 here]", "values": [{"measurement": "Crystal Form", "setting": "[1]", "value": "cannot maintain its original crystal form"}, {"measurement": "crystal stability in water", "setting": "[1]; in water, conditions not given, found by the inventors", "value": "crystallinity decreased significantly in water"}]}, {"smiles": "CN(C)C(=O)c1cc2cnc(Nc3ccc(N4CCNCC4)cn3)nc2n1C1CCCC1.O=C(O)CCC(=O)O", "note": "[listing 2 of 2 here]", "values": [{"measurement": "sensitivity of the crystal form to humidity", "setting": "[2]", "value": "easily converts to other crystal forms at high humidity"}, {"measurement": "sensitivity of the crystal form to humidity", "setting": "[2]; listed as anhydrate crystal form", "value": "easily convert to other crystal forms at high humidity"}]}, {"smiles": "CN(C)C(=O)c1cc2cnc(Nc3ccc(N4CCNCC4)cn3)nc2n1C1CCCC1.O=C(O)c1cc(=O)[nH]c(=O)[nH]1", "values": [{"measurement": "crystal form at high humidity", "setting": "[3]", "value": "remains unchanged"}, {"measurement": "Solubility", "setting": "[4]", "value": 110, "unit": "µg/mL"}, {"measurement": "appearance, XRPD and melting point after storage", "setting": "[5]", "value": "remain unchanged"}]}, {"smiles": "CN(C)C(=O)c1cc2cnc(Nc3ccc(N4CCNCC4)cn3)nc2n1C1CCCC1", "note": "[co-crystal of ribociclib and saccharin]", "values": [{"measurement": "Crystal Form", "setting": "[6]", "value": "Unchanged"}, {"measurement": "Crystal Form", "setting": "[6]; listed as co-crystal form of ribociclib and saccharin", "value": "remains unchanged"}, {"measurement": "solubility at 1 min", "setting": "[7]", "value": "~100", "unit": "µg/mL"}, {"measurement": "crystal form at high humidity", "setting": "[3]", "value": "remains unchanged"}, {"measurement": "appearance, XRPD and melting point after storage", "setting": "[5]", "value": "remain unchanged"}, {"measurement": "weight gain", "setting": "[8]; relative humidity of 0-10%", "value": 0.04, "unit": "%"}, {"measurement": "weight gain", "setting": "[8]; relative humidity of 10 to 80%", "value": 0.45, "unit": "%"}]}, {"smiles": "CN(C)C(=O)c1cc2cnc(Nc3ccc(N4CCNCC4)cn3)nc2n1C1CCCC1.O=C(O)CC(O)(CC(=O)O)C(=O)O.O=C(O)CCC(=O)O", "values": [{"measurement": "Crystal Form", "setting": "[6]", "value": "Unchanged"}, {"measurement": "Crystal Form", "setting": "[6]; [9]", "value": "remains unchanged"}, {"measurement": "Crystal Form", "setting": "[1]; [9]", "value": "remains unchanged"}, {"measurement": "Crystal Form", "setting": "[1]; listed as co-crystal of ribociclib monosuccinateand citric acid", "value": "Unchanged"}, {"measurement": "crystal form at high humidity", "setting": "[3]", "value": "remains unchanged"}, {"measurement": "appearance, XRPD and melting point after storage", "setting": "[5]", "value": "remain unchanged"}]}]}
